This passage reports Ki and IC50 results from ChEMBL document CHEMBL1130874, “Heteroatom- and carbon-linked biphenyl analogs of Brequinar as immunosuppressive agents” (Bioorg Med Chem Lett, 1998).

Assay [1] deals with Dihydroorotate dehydrogenase (quinone), mitochondrial (Homo sapiens, UniProt Q02127). The assay can be described thus: Immunosuppressive effect in an isolated enzyme assay using partially purified Dihydroorotate dehydrogenase from human liver for inhibition of the formation of orotate from radiolabeled dihydroorotate.
Chain of Dihydroorotate dehydrogenase (quinone), mitochondrial (Q02127 whole entry): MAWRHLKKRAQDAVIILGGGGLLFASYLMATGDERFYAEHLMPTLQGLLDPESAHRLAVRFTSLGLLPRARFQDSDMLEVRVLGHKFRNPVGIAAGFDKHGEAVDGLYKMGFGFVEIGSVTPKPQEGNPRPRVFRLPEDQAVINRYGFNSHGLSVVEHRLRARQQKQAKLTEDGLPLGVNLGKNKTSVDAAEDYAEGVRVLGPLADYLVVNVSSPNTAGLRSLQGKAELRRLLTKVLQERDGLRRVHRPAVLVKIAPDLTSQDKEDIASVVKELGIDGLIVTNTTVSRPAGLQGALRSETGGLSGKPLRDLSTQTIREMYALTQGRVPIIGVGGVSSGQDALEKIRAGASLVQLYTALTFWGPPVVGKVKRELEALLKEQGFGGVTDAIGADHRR
The nature of assay [2]: Ability to inhibit proliferation in a mixture of human lymphocytes from two unrelated donors in MLR (human mixed lymphocyte reaction). In kind it is functional, cell-based.

Molecules are shown by their SMILES.

As for `Cc1c(OCc2cccc(-c3ccccc3)c2)nc2ccc(F)cc2c1C(=O)O`, in assay [1], the Ki came to 330 nM. The IC50 in assay [2] was > 10000 nM.

For `Cc1c(Oc2ccc(-c3ccccc3)cc2)nc2ccc(F)cc2c1C(=O)O`, the Ki in assay [1] was > 1000 nM. Besides, in assay [2], the IC50 was > 10000 nM.

As for `COc1ccccc1-c1cccc2c(-c3nc4ccc(F)cc4c(C(=O)O)c3C)cn(C)c12`, the Ki in assay [1] was 40 nM. Further, in assay [2], the IC50 stood at 650 nM.

Turning to `CC(=O)N(c1cccc(-c2ccccc2)c1)c1nc2ccc(F)cc2c(C(=O)O)c1C`, the Ki in assay [1] is > 390 nM. Further, in assay [2], the IC50 is > 10000 nM.

As to `COc1cc(-c2ccccc2)c2c(c1)N(c1nc3ccc(F)cc3c(C(=O)O)c1C)CC2`, the affinity in assay [1], expressed as Ki, was 22 nM. Moreover, in assay [2], the IC50 amounted to 35 nM.

Consider `Cc1c(-c2c[nH]c3c(-c4ccccc4)cccc23)nc2ccc(F)cc2c1C(=O)O`, for which the Ki in assay [1] was > 130 nM. In assay [2], the IC50 worked out at 1600 nM.

On to `Cc1c(-c2ccc(-c3ccccc3F)cc2)nc2ccc(F)cc2c1C(=O)O` [BREQUINAR SODIUM], for which, in assay [2], the half-inhibitory concentration (IC50) is 15 nM.

As to `Cc1c(-c2cn(C)c3c(-c4ccccc4)cccc23)nc2ccc(F)cc2c1C(=O)O`, affinity in assay [1] was put at a Ki of 27 nM. Further, in assay [2], the IC50 is 140 nM.

Turning to `Cc1c(OCc2ccc(-c3ccccc3)cc2)nc2ccc(F)cc2c1C(=O)O`, the Ki in assay [1] was > 200 nM. Moreover, in assay [2], the IC50 was > 10000 nM.

Turning to `Cc1c(Oc2ccccc2)nc2ccc(F)cc2c1C(=O)O`, in assay [1], the Ki is > 1000 nM. In assay [2], the IC50 was > 10000 nM.

On to `Cc1c(N2CCc3c(-c4ccccc4)cc(F)cc32)nc2ccc(F)cc2c1C(=O)O`, for which the Ki in assay [1] stood at 30 nM. For the same compound, in assay [2], the IC50 was 41 nM.

Compound `Cc1c(N2CCc3c(-c4ccccc4F)cccc32)nc2ccc(F)cc2c1C(=O)O` came in with a Ki in assay [1] of 24 nM. In assay [2], the half-inhibitory concentration (IC50) amounted to 2.8 nM.

For `Cc1c(-c2cccc3c(-c4ccccc4)cccc23)nc2ccc(F)cc2c1C(=O)O`, the Ki in assay [1] was found to be 26 nM. Also, the IC50 in assay [2] worked out at 150 nM.

As to `Cc1c(-c2cn(C)c3c(-c4cccc(C(F)(F)F)c4)cccc23)nc2ccc(F)cc2c1C(=O)O`, the Ki in assay [1] worked out at 23 nM. The IC50 in assay [2] was found to be 7 nM.

On to `COc1ccccc1-c1cccc2c1CCN2c1nc2ccc(F)cc2c(C(=O)O)c1C`, for which, in assay [1], the Ki was 30 nM. In assay [2], the IC50 turned out to be 4.1 nM.

In turn, `Cc1c(Nc2cccc(-c3ccccc3)c2)nc2ccc(F)cc2c1C(=O)O` gave a Ki in assay [1] of 83 nM. In addition, in assay [2], the IC50 worked out at 340 nM.

With `COc1cccc(-c2cccc3c(-c4nc5ccc(F)cc5c(C(=O)O)c4C)cn(C)c23)c1`, the affinity in assay [1], expressed as Ki, was 32 nM. For the same compound, the IC50 in assay [2] came out at 190 nM.

As for `Cc1c(-n2cnc3c(-c4ccccc4)cccc32)nc2ccc(F)cc2c1C(=O)O`, the Ki in assay [1] came out at 71 nM. Besides, in assay [2], the IC50 came out at 4700 nM.

On to `Cc1c(N(C)c2cccc(-c3ccccc3)c2)nc2ccc(F)cc2c1C(=O)O`, for which the affinity in assay [1], expressed as Ki, was 240 nM. Moreover, the IC50 in assay [2] is > 10000 nM.

Turning to `Cc1c(Nc2ccccc2)nc2ccc(F)cc2c1C(=O)O`, the Ki in assay [1] is > 200 nM. In addition, in assay [2], the IC50 was > 10000 nM.

`Cc1c(N2CCc3c(-c4cccc(C(F)(F)F)c4)cccc32)nc2ccc(F)cc2c1C(=O)O` registered a Ki in assay [1] of 24 nM. In assay [2], the IC50 is 0.41 nM.

As to `Cc1c(Oc2cccc(-c3ccccc3)c2)nc2ccc(F)cc2c1C(=O)O`, the affinity in assay [1] corresponds to a Ki of 21 nM. Besides, the IC50 in assay [2] worked out at 210 nM.

Take `COc1cccc(-c2cccc3c2CCN3c2nc3ccc(F)cc3c(C(=O)O)c2C)c1`: in assay [1], the Ki is 34 nM. Also, the IC50 in assay [2] is 4 nM.

With `Cc1ccccc1-c1cccc2c1CCN2c1nc2ccc(F)cc2c(C(=O)O)c1C`, the Ki in assay [1] came out at 25 nM. Further, the IC50 in assay [2] is 1.6 nM.

`Cc1c(N2CCc3c(-c4ccccc4)cccc32)nc2ccc(F)cc2c1C(=O)O` registered a Ki in assay [1] of 15 nM. In assay [2], the IC50 stood at 26 nM.

In assay [1], `Cc1c(-n2ccc3c(-c4ccccc4)cccc32)nc2ccc(F)cc2c1C(=O)O` displayed a Ki of 4.5 nM. Also, the IC50 in assay [2] is 380 nM.

For the compound `Cc1c(Nc2ccc(-c3ccccc3)cc2)nc2ccc(F)cc2c1C(=O)O`, in assay [1], the Ki was > 430 nM. For the same compound, in assay [2], the IC50 was > 10000 nM.

As usually defined, the Ki is the equilibrium dissociation constant of an inhibitor or competing ligand from its target. The IC50 is the concentration needed to halve the response being measured.
